The record followed here is patent US10822323B2, “Acid labile surfactants” (Waters Technologies Corporation, priority 2018, dated 2020).

Values after ≈ are worked out from the molar mass of the structure shown. Where only a bound is given, the exact number is not on record here.

A short description of this data set: Dissolution study of hydrophobic moieties in acetonitrile / 20 mM ammonium bicarbonate buffer solutions. The settings on record: for Observed Solubility: 21° C.; for solubility: 21 °C, aqueous with cosolvent or surfactant or cyclodextrin, thermodynamic from solid. It is filed as physicochemical. How it is done:
A dissolution study was performed on compounds 3 (commercially available—Sigma Aldrich P/N 172839 99%) 6, and 8 (Synthesis described above) at 21° C. in different buffer solutions containing a mixture of standard chromatographic solvents, e.g., acetonitrile and 20 mM aqueous […]. 20 mM aqueous ammonium bicarbonate was made by dissolving 474 mg ammonium bicarbonate in 300 mL MiliQ water.

[1] abbreviates: 10% acetonitrile buffer solution, stated weight in stated buffer volume (3: 180 mL; 6: 120 mL; 8: 24 mL).
Setting [2] is: 30% acetonitrile buffer solution, stated weight in stated buffer volume (3: 50 mL; 6: 10 mL; 8: 1.4 mL).
The mark [3] stands for this setting: 10 mL acetonitrile and 90 mL 20 mM ammonium bicarbonate (10% acetonitrile).
[4] abbreviates: 30 mL acetonitrile and 70 mL 20 mM ammonium bicarbonate (30% acetonitrile).

By solubility is commonly meant the dissolved amount per volume that the medium holds. Lower therefore signals little dissolved substance. Consider `CCCCCCCCCCCC(C)=O` [Compound 3, reference compound], for which the “Observed Solubility” value under setting [1] is given as “At 6 mg: Not dissolved” and the “Observed Solubility” value under setting [2] is given as “At 30 mg: Not dissolved”. Further, the solubility is less than 30 µg/mL under setting [3] and less than 1000 µg/mL under setting [4].

On to `CCCCCCCCCCCOCC(O)CO` (stereo not drawn) [Compound 6, 3-(undecyloxy)-1,2-propanediol], for which the “Observed Solubility” value runs as follows: under setting [1], “At 6 mg: Not dissolved”; (30% acetonitrile buffer solution, stated weight in stated buffer volume (3: 50 mL; 6: 10 mL; 8: 1.4 mL), 70 mg in 10 mL buffer) “At 70 mg: Dissolved”; (30% acetonitrile buffer solution, stated weight in stated buffer volume (3: 50 mL; 6: 10 mL; 8: 1.4 mL), 90 mg in 10 mL buffer) “At 90 mg: Not dissolved”. Further, the solubility runs as follows: under setting [3], less than 50 µg/mL; under setting [4], roughly 8000 µg/mL (≈ 32.5 mM).

As for `CCCCCCCCCOCC(O)CO` (stereo not drawn) [Compound 8, 3-nonoxypropane-1,2-diol], the “Observed Solubility” value under setting [2] is recorded as “At 200 mg: Dissolved”. Besides, the solubility runs as follows: under setting [3], roughly 500 µg/mL (≈ 2.29 mM); under setting [4], roughly 140000 µg/mL (≈ 641 mM).
